Data: paper PMC12366525, “Characterization of allosteric modulators that disrupt androgen receptor co-activator protein-protein interactions to alter transactivation–Drug leads for metastatic castration resistant prostate cancer” (SLAS discovery : advancing life sciences R & D, 2023)

Legend:
TIF2 = molecular target: T1, TIF2 (Homo sapiens, UniProt Q15596); assay: Western blotting cellular thermal shift assay for TIF2 in C4–2 cells; format: cell-based; settings: 20 μM 1 h at 37 °C prior to heat shock at 46 °C
T1 construct: endogenous in cells; host or cells: C4–2 cells
T1 sequence (Q15596 whole entry): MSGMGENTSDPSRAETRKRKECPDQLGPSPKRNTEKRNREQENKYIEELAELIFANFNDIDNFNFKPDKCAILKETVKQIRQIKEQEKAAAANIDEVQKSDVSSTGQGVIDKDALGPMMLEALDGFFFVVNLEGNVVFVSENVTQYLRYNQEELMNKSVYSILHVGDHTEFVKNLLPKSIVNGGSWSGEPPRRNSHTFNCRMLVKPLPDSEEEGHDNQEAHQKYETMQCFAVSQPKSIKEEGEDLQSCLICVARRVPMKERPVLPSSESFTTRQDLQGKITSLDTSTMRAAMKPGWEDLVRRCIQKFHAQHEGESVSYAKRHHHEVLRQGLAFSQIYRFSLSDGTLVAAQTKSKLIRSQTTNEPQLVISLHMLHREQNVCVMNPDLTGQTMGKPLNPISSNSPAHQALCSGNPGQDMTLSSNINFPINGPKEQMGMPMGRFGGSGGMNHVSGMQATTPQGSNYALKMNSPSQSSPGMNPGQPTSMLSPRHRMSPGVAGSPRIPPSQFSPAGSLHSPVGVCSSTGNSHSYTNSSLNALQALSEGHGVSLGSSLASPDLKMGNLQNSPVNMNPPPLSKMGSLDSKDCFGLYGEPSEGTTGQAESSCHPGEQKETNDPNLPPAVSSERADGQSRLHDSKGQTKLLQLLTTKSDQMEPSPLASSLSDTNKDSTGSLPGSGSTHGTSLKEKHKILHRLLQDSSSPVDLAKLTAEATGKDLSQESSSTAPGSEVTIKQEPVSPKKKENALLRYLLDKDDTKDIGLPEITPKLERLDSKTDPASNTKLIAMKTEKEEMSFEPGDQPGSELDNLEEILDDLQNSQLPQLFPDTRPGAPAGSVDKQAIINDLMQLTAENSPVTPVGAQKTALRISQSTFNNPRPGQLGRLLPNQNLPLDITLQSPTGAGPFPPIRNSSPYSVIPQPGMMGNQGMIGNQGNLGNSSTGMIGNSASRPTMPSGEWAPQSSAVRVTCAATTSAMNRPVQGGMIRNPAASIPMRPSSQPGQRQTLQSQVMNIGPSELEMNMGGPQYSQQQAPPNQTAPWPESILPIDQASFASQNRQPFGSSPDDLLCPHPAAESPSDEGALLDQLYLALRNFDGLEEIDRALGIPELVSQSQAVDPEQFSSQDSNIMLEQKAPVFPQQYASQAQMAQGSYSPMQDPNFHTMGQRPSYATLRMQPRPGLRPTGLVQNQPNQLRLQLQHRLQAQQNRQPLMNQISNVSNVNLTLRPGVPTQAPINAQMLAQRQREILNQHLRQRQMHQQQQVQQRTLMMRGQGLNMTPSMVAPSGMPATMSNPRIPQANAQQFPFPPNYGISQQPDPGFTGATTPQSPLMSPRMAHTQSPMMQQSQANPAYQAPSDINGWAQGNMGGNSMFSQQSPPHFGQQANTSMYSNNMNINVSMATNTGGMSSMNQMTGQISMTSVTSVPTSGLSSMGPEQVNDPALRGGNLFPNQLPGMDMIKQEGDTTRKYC
Protocol: C4–2 cells were harvested by trypsinization, washed 1x by centrifugation at 270 × g for 5 min and resuspension in PBS, counted, centrifugated at 270 × g for 5 min and resuspended at 7 × 10 [6] cells per mL in Opti-MEM medium (Gibco, Gaithersburg, MD). 50 μL of C4–2 cell suspension (3.5 × 10 [5] cells) were then transferred to PCR tubes that were placed in a T-100 thermocycler (BioRad, Hercules, CA) and a 2 °C interval temperature step gradient from 37 °C to 53 °C was applied. Cells were maintained at each step of the temperature gradient for 5 min and then tubes were withdrawn and placed on ice. 50 μL of cell lysis buffer, 500 mM NaCl, 1% NP-40, 1x protease inhibitor cocktail in PBS were added to the heat shocked cell suspensions in PCR tubes and placed on ice for an additional 30 min. Cell lysates were then centrifuged at 14,000 RPM (18,800 × g) at 4 °C for 15 min and supernatants were transferred to new tubes and protein concentrations were determined in a bicinchoninic acid (BCA) assay. 45 μL of cell lysis supernatants were mixed with 15 μL of 5x SDS-PAGE sample buffer and placed in a heat block at 100 °C for 5 min. The protein constituents of heat shocked C4–2 cell lysis supernatants were separated by SDS-PAGE on 8% separating gels, transferred to nitrocellulose membranes that were blocked for 1 h at room temperature in 5% non-fat milk in TBST, and then probed overnight at 4 °C with a 1:1000 dilution of either rabbit anti-AR (Cell Signaling, Danvers, MA) or rabbit anti-TIF2 (Bethyl Laboratories, Waltham, MA) primary antibodies in TBST containing 5% non-fat milk. Membranes were then washed 3x in TBST buffer for 10 min, then incubated with a 1:10,000 dilution of the goat anti-rabbit IgG HRP conjugated secondary antibody (Invitrogen, Carlsbad,CA) in TBST containing 5% non-fat milk for 1 h at room temperature. Western blots were then washed 3x in TBST buffer and developed with Pierce ECL western blotting substrate. Images of ECL western blots were acquired on an iBright 1500 imaging system and quantified using the iBright image analysis software.

HEK 293 cells = assay: M2H viability counter screen; format: cell-based; settings: cytotoxicity counter screen; read-out: M2H viability CS GI50

With Cc1ccccc1-c1cc(O)c2c(c1)CN(c1nc(C(N)=O)cs1)CCO2 [S1–1] the “Effect on TIF2 thermal stability” value (TIF2) was “did not enhance TIF2 thermal stability over DMSO”.
With Cc1ccccc1-c1cc(O)c2c(c1)CN(c1nccs1)CCO2 [S1–3] the GI50 (HEK 293 cells) was greater than 100 µM.
Cc1nsc(NC(=O)N2CCC(Sc3ccccc3C)CC2)n1 [S2–6] was tested, and the “Effect on TIF2 thermal stability” value (TIF2) was “did not enhance TIF2 thermal stability over DMSO”.
Cc1c(-c2ccccc2F)[nH]c2ccc(CNC(=O)CCc3cn[nH]c3)cc12 [S3–11] was tested, and the “Effect on TIF2 thermal stability” value (TIF2) was “did not enhance TIF2 thermal stability over DMSO”.
